Laboratory results published in patent publication US9605047B2, “Compositions and methods for treating hypertension” (The Brigham and Women's Hospital, Inc., priority 2012, dated 2017).

Experiments:
eNOS = eNOS activity ([14C] arginine, NOS activity kit) in HPAECs; type: cell-based, human; settings: ET-1 (10 nM) stimulated HPAECs, without or with aldosterone; n=3
Method: eNOS activity. eNOS activity was measured using the NOS activity kit (Cayman) according to the manufacturer's instructions with some modifications. Cells were washed with PBS containing 1 mM EDTA, transferred to a microcentrifuge tube, and centrifuged at 14,000×g at 4° C. for 2 min. The supernatant was decanted and homogenization buffer (250 mM Tris-HCl, pH 7.4, 6 μM BH4, 2 μM flavin adenine dinucleotide, and 2 μM flavin adenine mononucleotide) was added to the cell pellets. […] The samples were then centrifuged at 14,000×g for 30 seconds and radioactivity of the eluant was quantified in a liquid scintillation counter (Beckman-Coulter).

[1] = system: NOX4 and NOX4 subunit p22^phox; assay: NOX4 and p22phox protein levels in HPAECs by Western analysis; type: cell-based, human; settings: n=3
Method: Cell culture and treatments. Human pulmonary artery endothelial cells (HPAECs) (Lonza) (male donors) were grown to confluence using phenol-free EGM-2 medium supplemented with 5% fetal bovine serum at 37° C., 5% CO2. Cells were passaged twice-weekly using 0.5% trypsin/EDTA, and experiments were performed on cells from passages 4-10. Aldosterone (Steraloids) and ET-1 (1-100 nM) (Sigma-Aldrich) were dissolved in dimethylsufloxide ([…]) and deoxygenated water, respectively, which served as vehicle controls. Cells were treated with aldosterone (10^−−10^−7 mol/L) for 24 h and in selected experiments co-incubated with the mineralocorticoid receptor inhibitor spironolactone (10 μM/l) (Sigma-Aldrich).
(§1) Immunoblotting. Proteins were size fractionated electrophoretically using SDS-PAGE and transferred to polyvinylidene fluoride membranes. The membranes were incubated with anti-ETA (Santa Cruz Biotechnology), anti-ETB (Santa Cruz Biotechnology), anti-NOX4 (Santa Cruz Biotechnology), anti-p22P^phox (Santa Cruz), anti-eNOS (Cell Signaling), anti-PGC-1α (Santa Cruz Biotechnology), and anti-SF (Santa Cruz Biotechnology) antibodies overnight at 4° C. and visualized using the ECL detection system (Amersham Biosciences). In experiments to assess ETA expression, purified ETA protein (Novus Biological) was loaded to serve as an internal control.

[2] = system: ETB-dependent NO. generation in HPAECs; assay: NO. metabolites (NO2−, NO3−) in ET-1-stimulated HPAECs; type: cell-based, human; settings: n=3
Method: Cell culture and treatments. Human pulmonary artery endothelial cells (HPAECs) (Lonza) (male donors) were grown to confluence using phenol-free EGM-2 medium supplemented with 5% fetal bovine serum at 37° C., 5% CO2. Cells were passaged twice-weekly using 0.5% trypsin/EDTA, and experiments were performed on cells from passages 4-10. Aldosterone (Steraloids) and ET-1 (1-100 nM) (Sigma-Aldrich) were dissolved in dimethylsufloxide (10 nmol/L) and deoxygenated water, respectively, which served as vehicle controls. Cells were treated with aldosterone (10^−−10^−7 mol/L) for 24 h and in selected experiments co-incubated with the mineralocorticoid receptor inhibitor spironolactone (10 μM/l) (Sigma-Aldrich).
NO. metabolites. Nitrite (NO2^−) and nitrate (NO3^−) were measured in cell culture medium containing 2% fetal bovine serum and L-arginine (1 mmol/l) (Sigma-Aldrich) by 1(H)-naphthotriazole fluorescence (Cayman) as previously reported.^1 To measure NO2^− levels in whole lung tissue, lung specimens were harvested from rats and snap frozen in liquid nitrogen.

[3] = target: T1, ETB cysteinyl thiols (region containing Cys405) (Homo sapiens, UniProt P24530); assay: Western analysis to detect ETB disulfide bond formation in HPAECs; type: cell-based; settings: aldosterone 10^−7 mol/L 24 h or H2O2 200 μmol/L 20 min
T1 construct: endogenous in cells; host or cells: HPAECs (Lonza)
T1 sequence (P24530 27-442): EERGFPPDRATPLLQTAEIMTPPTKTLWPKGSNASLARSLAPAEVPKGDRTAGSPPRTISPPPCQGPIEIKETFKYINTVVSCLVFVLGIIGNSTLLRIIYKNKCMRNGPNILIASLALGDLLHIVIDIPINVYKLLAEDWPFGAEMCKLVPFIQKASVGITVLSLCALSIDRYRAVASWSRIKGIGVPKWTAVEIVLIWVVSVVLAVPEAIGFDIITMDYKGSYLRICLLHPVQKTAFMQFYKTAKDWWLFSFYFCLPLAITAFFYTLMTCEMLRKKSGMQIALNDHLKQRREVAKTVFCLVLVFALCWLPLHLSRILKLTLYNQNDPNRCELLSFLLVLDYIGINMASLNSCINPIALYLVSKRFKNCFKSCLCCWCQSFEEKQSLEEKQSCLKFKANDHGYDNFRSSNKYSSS
Method: Western analysis to detect ETB disfulfide bond formation. Western analysis to detect ETB disulfide bond formation was performed as described previously.^7 Briefly, protein extracts from cells were lysed in alkylating buffer containing 0.1 M Tris-HCL, pH 6.8, 1% SDS, 100 mM iodoacetamide, and 100 mM N-ethylmaleimide, and sonicated on ice for 5 min followed by a 30-min incubation at 25° C. Alkylated proteins were then precipitated with acetone. Proteins were resuspended in 50 μl of 0.1 M Tris-HCl, pH 7.4, 1% SDS; and disulfides were reduced with 5 mM tris(2-carboxyethyl)phosphine hydrochloride (TCEP). Following a 20-min incubation at 25° C., TCEP was removed with a Micro Bio-Spin™ column 6 (Bio-Rad), and 1% SDS was added to the eluant. The cysteines previously participating in a disulfide bond, now reduced, were labeled with 1 mM polyethylene glycol-conjugated maleimide (molecular mass 10 kDa) (Fluka). After a 1-h incubation at 25° C., proteins were precipitated with acetone, resuspended in 50 μl of non-reducing SDS electrophoresis buffer, and boiled for 10 min. Protein samples were then size-fractionated electrophoretically using SDS-PAGE, and transferred to a polyvinylidene fluoride membrane. […]

HPAECs [4] = assay: Amplex Red assay of hydrogen peroxide levels in HPAECs; type: cell-based, human; settings: aldosterone 10^−7 mol/L, 24 h, HPAECs; vs V 65.4±1.6; n=3
Method: Human pulmonary artery endothelial cells (HPAECs) (Lonza) (male donors) were grown to confluence using phenol-free EGM-2 medium supplemented with 5% fetal bovine serum at 37° C., 5% CO2. Cells were passaged twice-weekly using 0.5% trypsin/EDTA, and experiments were performed on cells from passages 4-10. Aldosterone (Steraloids) and ET-1 (1-100 nM) (Sigma-Aldrich) were dissolved in dimethylsufloxide (10 nmol/L) and deoxygenated water, respectively, which served as vehicle controls. Cells were treated with aldosterone (10^−−10^−7 mol/L) for 24 h and in selected experiments co-incubated with the mineralocorticoid receptor inhibitor spironolactone (10 μM/l) (Sigma-Aldrich).

[5] = system: ETB region containing Cys405; assay: ETB sulfenic acid (R-SOH) by immunoprecipitation and immunoblot in HPAECs; type: cell-based, human; settings: aldosterone 10^−7 mol/L, 24 h, vs V, n=3
Method: Co-immunoprecipitation of proteins. Cell monolayers were washed twice with ice-cold PBS and incubated on ice with RIPA buffer supplemented with various protease inhibitors (Millpore). Cells were scraped with a rubber policeman and samples were rotated at 4° C. for 15 min. Lysates were centrifuged at 14,000×g at 4° C. for 15 min and the then pre-cleared with a 50% slurry of Protein G agarose beads (Santa Cruz Biotechnology) mixed with PBS. Following removal of the beads by centrifugation, cell lysates were incubated with an anti-ETB or anti-PGC-1α antibody (Santa Cruz Biotechnology) overnight at 4° C. The immunocomplex was captured by incubating lysates with 50% Protein G agarose bead slurry at 4° C. for 1 h. Beads were collected by pulse centrifugation, resuspended in non-reducing sample buffer, and then boiled for 10 min to dissociate the immunocomplex from the beads. Western analysis was performed with an anti-SF (Santa Cruz) or anti-sulfenic acid (R—SOH) antibody (Millpore) as described above.

HPAECs [6] = assay: 3-Nitrotyrosine immunohistochemistry in HPAECs; type: cell-based, human; settings: V 24.1±3.3, n=5
Method: 3-Nitrotyrosine immunohistochemistry. Cells grown to confluence on glass chamber slides were fixed following treatments and anti-3-nitrotyrosine immunohistochemistry (Santa Cruz Biotechnology) was performed using the 3,3′-diaminobenzidine substrate method (Vector laboratories) as described previously.^1

ETA, ETB, eNOS = assay: ETA, ETB and eNOS protein levels in HPAECs by Western analysis; type: cell-based, human
Method: as §1, with “anti-[…]^phox” for “anti-p22P^phox”

[7] = aldosterone 10^−7 mol/L, 24 h, HPAECs

## C[C@]12CCC(=O)C=C1CC[C@@H]1[C@@H]2[C@@H](O)C[C@]2(C=O)[C@@H](C(=O)CO)CC[C@@H]12 [aldosterone]
eNOS
  eNOS activity: 7.6±2.4 [^14C] L-citrulline c.p.m./μg protein
[1]; aldosterone 10^−7 mol/L
  protein levels of NOX4: 157.0±4.4 % control
  protein levels of p22^phox: 829.5±295.6 % control
[1]; aldosterone 10^−8 mol/L
  protein levels of NOX4: 146.3±12.4 % control
  protein levels of p22^phox: 961±226.2 % control
[1]; aldosterone 10^−9 mol/L
  protein levels of NOX4: 134.6±16.5 % control
  protein levels of p22^phox: 1009.4±167.0 % control
[2]; ET-1 (10 nM) stimulated HPAECs, without or with aldosterone
  total NO. metabolite (NOx: NO2^−+NO3^−) formation: 103.4±12.2 μM/μg protein
[2]; aldosterone 10^−7 mol/L, 24 h, then ET-1 10 nM, HPAECs
  decrease in ETB-mediated NO2^− levels: 60.3%
[2]; aldosterone in ET-1-stimulated HPAECs
  decrease in NO2^−/NO3^− ratio: 62%
[3]
  ETB disulfide bond formation (bands at 70 kDa and 90 kDa): de novo formation of one or two disulfide bonds
HPAECs [4]
  H2O2 accumulation: 100.6±3.5 μM/mg protein
[5]
  increase in ETB-SOH protein expression levels: 639%
HPAECs [6]
  levels of 3-nitrotyrosine: 46.8±6.6 arb. units
ETA, ETB, eNOS; [7]
  expression of ETA: Without influencing protein expression of ETB, or inducing
  protein expression of ETB: Without influencing
ETA, ETB, eNOS; aldosterone-treated HPAECs
  eNOS protein levels: Without influencing
